One assay relates to Trypanosoma cruzi. Briefly: Antiprotozoal activity against Trypanosoma cruzi Tulahuen C4 in rat L6 cells. The assay is classed as functional, organism-based.
Another assay deals with Plasmodium falciparum. Briefly: Antimalarial activity against Plasmodium falciparum K1 in human erythrocytes by [3H]hypoxanthine uptake. The assay is classed as functional, organism-based.
Another assay concerns L6. Briefly: Cytotoxicity against rat L6 cells. It is filed as cell-based.
The test system of another assay is Leishmania donovani. Briefly: Antiprotozoal activity against Leishmania donovani MHOM-ET-67/L82 in mouse peritoneal macrophages. It is filed as functional, organism-based.
Assay [1] concerns Trypanosoma brucei rhodesiense. Description: Antiprotozoal activity against Trypanosoma brucei rhodesiense STIB900. It is filed as functional, organism-based.

The structures appear in SMILES notation. ≈ marks a conversion by molar mass, not a printed value.

Broadly, the IC50 is the point on the concentration scale where inhibition reaches its midpoint. Low values mean higher potency, high ones lower potency.

Molecule `O=C(Cn1ccnc1[N+](=O)[O-])NCc1ccccc1` [BENZNIDAZOLE] displayed an IC50 in the assay on Trypanosoma cruzi of 0.317 µg/mL (≈ 1.22 µM).

Turning to `COc1cccc2oc3cc4c(c(O)c3c(=O)c12)[C@@H]1C[C@@H](O)C[C@](C)(O4)O1` [CHAETOXANTHONE A], the IC50 in the assay on Plasmodium falciparum is 3.5 µg/mL (≈ 9.45 µM); in the assay on Trypanosoma cruzi, more than 10 µg/mL; in the assay on L6 it was 59.1 µg/mL (≈ 160 µM); with Leishmania donovani it was 5.3 µg/mL (≈ 14.3 µM); in assay [1] it was 4.7 µg/mL (≈ 12.7 µM).

For the molecule `COc1cccc2oc3c(Cl)c(O)c([C@H]4CCC[C@@H](C)O4)c(O)c3c(=O)c12` [CHAETOXANTHONE C], the IC50 amounted to 4 µg/mL (≈ 10.2 µM) with Plasmodium falciparum; 1.5 µg/mL (≈ 3.84 µM) with Trypanosoma cruzi; 46.7 µg/mL (≈ 119 µM) in the assay on L6; 3.1 µg/mL (≈ 7.93 µM) with Leishmania donovani; 42.6 µg/mL (≈ 109 µM) in assay [1].

With `COc1cccc2oc3cc4c(c(O)c3c(=O)c12)C1CCCC(C)(O4)O1` (stereo unspecified) [CHAETOXANTHONE B], the IC50 with Plasmodium falciparum was 0.5 µg/mL (≈ 1.41 µM); in the assay on Trypanosoma cruzi it was 7.1 µg/mL (≈ 20 µM); in the assay with L6, more than 90 µg/mL; in the assay with Leishmania donovani, 3.4 µg/mL (≈ 9.59 µM); in assay [1], 9.3 µg/mL (≈ 26.2 µM).

For the origin of these results see ChEMBL document CHEMBL1156639, “Antiprotozoal activities of heterocyclic-substituted xanthones from the marine-derived fungus Chaetomium sp” (J Nat Prod, 2008).
